# Data as given in PMC11355195 (Life, 2024).
# pIC50: −log10 of the molar value. Read-outs that look alike come from different tables or passages of the source.
# Legend:
# 5-LOX = target: T1, 5-LOX (Glycine max, UniProt P08170); assay: 5-Lipoxygenase (5-LOX) inhibition
# T1 sequence (P08170 1-839): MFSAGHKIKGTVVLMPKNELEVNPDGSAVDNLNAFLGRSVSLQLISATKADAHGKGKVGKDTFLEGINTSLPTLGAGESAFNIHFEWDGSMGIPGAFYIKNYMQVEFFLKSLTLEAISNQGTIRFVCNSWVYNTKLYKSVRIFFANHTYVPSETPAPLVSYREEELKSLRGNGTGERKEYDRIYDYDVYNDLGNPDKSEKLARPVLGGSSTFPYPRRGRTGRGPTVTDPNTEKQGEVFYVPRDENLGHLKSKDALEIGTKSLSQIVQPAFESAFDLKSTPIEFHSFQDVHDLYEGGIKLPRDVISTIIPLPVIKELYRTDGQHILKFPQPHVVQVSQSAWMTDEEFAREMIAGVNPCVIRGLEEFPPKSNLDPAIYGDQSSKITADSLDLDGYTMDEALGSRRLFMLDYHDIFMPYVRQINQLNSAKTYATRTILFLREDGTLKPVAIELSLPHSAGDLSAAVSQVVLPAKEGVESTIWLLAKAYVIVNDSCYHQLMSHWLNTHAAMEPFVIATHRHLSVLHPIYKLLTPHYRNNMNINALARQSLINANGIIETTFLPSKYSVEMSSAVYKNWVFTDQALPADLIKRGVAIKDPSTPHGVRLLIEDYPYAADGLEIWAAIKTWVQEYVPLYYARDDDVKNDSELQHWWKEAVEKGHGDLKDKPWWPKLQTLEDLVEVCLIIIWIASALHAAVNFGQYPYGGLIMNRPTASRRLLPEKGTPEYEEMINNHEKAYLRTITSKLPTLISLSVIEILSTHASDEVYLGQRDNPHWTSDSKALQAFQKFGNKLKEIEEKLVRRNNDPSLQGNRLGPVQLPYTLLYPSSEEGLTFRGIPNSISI
# Excerpt: The % inhibition of hydrogen peroxide formation, an indication of lipoxygenase inhibitory action, was computed according to the formula: Inhibition percentage%=Acontrol−Ablank−Asample−Ablank/Acontrol−Ablank where Acontrol, Ablank and ASample represent the absorbances of the control well, blank, and test sample, respectively.
# [1] = Oxygen radical absorbance capacity (ORAC); conditions: Trolox equivalents
# Method: The ORAC (Oxygen Radical Absorbance Capacity) test was carried out using a modified version of the procedure reported by Huang et al.. This test examines the antioxidant capacity of compounds by examining their ability to neutralize oxygen radicals. The method was carried out utilizing a 96-well microplate format. First, 150 µL of fluorescein solution, produced as 8 × 10^−8 M fluorescein in 0.075 M phosphate buffer (pH 7.4), were dispersed to each well. Fluorescein is a fluorescent probe whose fluorescence lowers when it reacts with radicals. Next, 25 µL of the substance or mixture to be evaluated was added to the corresponding wells. Wells containing 25 µL of phosphate buffer served as blanks, and wells containing 25 µL of Trolox solution (from 10 to 100 µm) were utilized as standards. Control wells containing 50 µL phosphate buffer without any radicals were also added to provide a baseline. The reaction was initiated by adding 25 µL of a freshly produced solution of AAPH (2,2′-azobis(2-methylpropionamidine) dihydrochloride) at a concentration of 165.94 mM in phosphate buffer to each well, except for the control wells, at a temperature of 37 °C. AAPH creates peroxyl radicals that induce oxidative stress in the fluorescein solution, simulating free-radical attack. […] The fluorescence in-tensity of the mixture was then monitored at regular intervals for 120 min.
# MCF-7 cells = conditions: ref Seresht et al. (2019) [79], cited from earlier work
# COX-2 = target: T2, COX-2 (Ovis aries, UniProt P79208); assay: COX-2-catalyzed prostaglandin production inhibition; format: biochemical, sheep; conditions: mean ± standard deviation, three replicas
# T2 construct: purchased Cayman Chemical Company, Ann Arbor, MI, USA; host or cells: sheep placenta (tissue)
# T2 sequence (P79208 17-603): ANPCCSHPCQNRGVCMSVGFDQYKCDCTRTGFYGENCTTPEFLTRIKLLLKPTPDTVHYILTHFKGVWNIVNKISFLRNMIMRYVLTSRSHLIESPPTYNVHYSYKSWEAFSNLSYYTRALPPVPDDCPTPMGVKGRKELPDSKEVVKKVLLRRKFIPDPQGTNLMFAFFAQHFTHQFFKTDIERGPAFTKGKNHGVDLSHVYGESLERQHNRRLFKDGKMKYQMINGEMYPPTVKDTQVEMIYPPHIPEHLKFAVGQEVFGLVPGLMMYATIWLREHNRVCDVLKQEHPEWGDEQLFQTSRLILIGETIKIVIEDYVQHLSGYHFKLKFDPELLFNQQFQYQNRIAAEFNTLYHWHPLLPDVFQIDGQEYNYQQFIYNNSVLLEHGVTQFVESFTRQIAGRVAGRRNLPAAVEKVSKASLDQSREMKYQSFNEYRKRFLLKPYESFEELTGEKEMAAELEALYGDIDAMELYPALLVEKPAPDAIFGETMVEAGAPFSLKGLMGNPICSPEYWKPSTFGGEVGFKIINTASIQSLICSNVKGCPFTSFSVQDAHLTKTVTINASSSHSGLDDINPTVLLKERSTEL
# Method: The COX inhibitory effects of the substances were examined using a COX-1/COX-2-catalyzed prostaglandin production test, using a modified approach by Futaki et al.. The chemicals were dissolved in 4% DMSO to a final concentration of 100 µg/mL.
# In this test, one unit of COX-1 or COX-2 enzyme was suspended in a 0.1 M Tris-HCl buffer (pH 7.5) containing hematin ([…]) and phenol (2 mM) as cofactors. The COX-1 enzyme was produced from ram seminal vesicles, while COX-2 was taken from sheep placenta with a purity of 70% (both from Cayman Chemical Company, Ann Arbor, MI, USA). The reaction mixture was preincubated with either the solvent vehicle (4% DMSO) or the test solution for 2 min at 37 °C. […] Arachidonic acid, tagged with radioactive carbon ([1–14C]), serves as a substrate for the COX enzymes. The mixture was then incubated for an additional 2 min at 37 °C. […] The organic solvent phase was removed, and the PGE2 level in the remaining aqueous phase was quantified using a radioimmunoassay with a liquid scintillation counter, which measures the radioactivity (disintegrations per minute, DPM) of the [1–14C]-labeled PGE2. The percentage inhibition of COX-catalyzed prostaglandin production by the test compounds was estimated by comparing the radioactivity of the samples with the solvent vehicle controls. […]
smiles,measurement,setting,value
"Cc1ccc(C(C)C)c(O)c1 [Thymol, 2-isopropyl-5-methylphenol]",pIC50,5-LOX,3.51
same,Oxygen Radical Absorbance Capacity,[1],2.341 ± 0.009 mmol TE/g
same,IC50 on MCF-7 cells,MCF-7 cells; 48 h,54 µg/mL
same,IC50 on MCF-7 cells,MCF-7 cells; 72 h,62 µg/mL
same,pIC50,COX-2,3.75
